Data reported in ChEMBL document CHEMBL1909046, “DrugMatrix in vitro pharmacology data”.

How the values were obtained:
Nitric oxide synthase 1 = Nitric oxide synthase 1 (Rattus norvegicus, UniProt P29476); assay type: tissue-based, Cerebellum; note: in other assays of this panel Not Active means under 50% inhibition at 10 µM
[1] = biological target: Mitogen-activated protein kinase 14 (Homo sapiens, UniProt Q16539); parameters: species or system Escherichia coli;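 note: inhibition of p38alpha enzyme activity in a biochemical kinase assay, with myelin basic protein serving as substrate; in other assays of this panel Not Active means under 50% inhibition at 10 µM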
Mitogen-activated protein kinase 14, sequence (Q16539 whole entry): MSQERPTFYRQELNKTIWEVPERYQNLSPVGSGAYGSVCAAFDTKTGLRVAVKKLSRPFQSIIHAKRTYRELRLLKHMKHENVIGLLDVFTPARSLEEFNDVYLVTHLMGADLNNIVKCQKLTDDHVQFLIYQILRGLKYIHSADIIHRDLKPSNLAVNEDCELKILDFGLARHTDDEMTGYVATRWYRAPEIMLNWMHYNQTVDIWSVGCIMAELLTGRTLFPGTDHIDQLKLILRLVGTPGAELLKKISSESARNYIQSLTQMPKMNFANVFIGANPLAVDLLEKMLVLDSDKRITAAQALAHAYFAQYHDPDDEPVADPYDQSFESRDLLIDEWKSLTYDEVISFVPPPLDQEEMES

[2] = biological target: T1, Polyunsaturated fatty acid lipoxygenase ALOX15 (Oryctolagus cuniculus, UniProt P12530); test: biochemical; assay type: tissue-based, Reticulocytes; details: reticulocytes;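 note: inhibition of 15-lipoxygenase enzyme activity measured with linoleic acid as the substrate; in other assays of this panel Not Active means under 50% inhibition at 10 µM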
T1 sequence (P12530 whole entry): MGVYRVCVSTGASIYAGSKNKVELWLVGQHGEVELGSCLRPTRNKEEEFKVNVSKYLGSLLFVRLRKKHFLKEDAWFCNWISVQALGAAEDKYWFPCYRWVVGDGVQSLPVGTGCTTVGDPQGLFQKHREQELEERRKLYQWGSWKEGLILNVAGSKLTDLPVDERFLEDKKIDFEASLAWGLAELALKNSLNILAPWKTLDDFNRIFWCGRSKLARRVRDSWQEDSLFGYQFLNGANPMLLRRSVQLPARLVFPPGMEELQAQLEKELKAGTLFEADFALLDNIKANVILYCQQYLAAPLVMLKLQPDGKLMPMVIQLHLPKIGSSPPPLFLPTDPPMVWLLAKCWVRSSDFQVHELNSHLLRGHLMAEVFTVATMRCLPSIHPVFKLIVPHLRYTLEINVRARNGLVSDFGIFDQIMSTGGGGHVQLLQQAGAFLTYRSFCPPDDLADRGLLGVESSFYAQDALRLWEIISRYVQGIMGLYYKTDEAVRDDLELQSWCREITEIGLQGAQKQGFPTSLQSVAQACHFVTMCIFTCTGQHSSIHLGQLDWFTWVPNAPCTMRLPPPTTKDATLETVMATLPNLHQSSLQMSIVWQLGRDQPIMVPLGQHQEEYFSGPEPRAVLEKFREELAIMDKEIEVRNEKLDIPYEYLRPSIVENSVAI

[3] = DRUGMATRIX: Purinergic P2X radioligand binding (ligand: [3H] alpha, beta-Methylene-ATP); assay type: cell membranes, Oryctolagus cuniculus, New Zealand albino, Urinary bladder, Membrane; details: Not Active = under 50% inhibition at 10 µM
[4] = DRUGMATRIX: Sodium/nucleoside co-transporter radioligand binding (ligand: nitrobenzylthioinosine); assay type: cell membranes, Cavia porcellus, Dunkin-Hartley, Cerebral cortex, Membrane; details: Not Active = under 50% inhibition at 10 µM
[5] = biological target: 5-hydroxytryptamine receptor 2B (Homo sapiens, UniProt P41595); assay type: cell membranes, CHO-K1, Membrane; note: in other assays of this panel Not Active means under 50% inhibition at 10 µM
5-hydroxytryptamine receptor 2B, sequence (P41595 whole entry): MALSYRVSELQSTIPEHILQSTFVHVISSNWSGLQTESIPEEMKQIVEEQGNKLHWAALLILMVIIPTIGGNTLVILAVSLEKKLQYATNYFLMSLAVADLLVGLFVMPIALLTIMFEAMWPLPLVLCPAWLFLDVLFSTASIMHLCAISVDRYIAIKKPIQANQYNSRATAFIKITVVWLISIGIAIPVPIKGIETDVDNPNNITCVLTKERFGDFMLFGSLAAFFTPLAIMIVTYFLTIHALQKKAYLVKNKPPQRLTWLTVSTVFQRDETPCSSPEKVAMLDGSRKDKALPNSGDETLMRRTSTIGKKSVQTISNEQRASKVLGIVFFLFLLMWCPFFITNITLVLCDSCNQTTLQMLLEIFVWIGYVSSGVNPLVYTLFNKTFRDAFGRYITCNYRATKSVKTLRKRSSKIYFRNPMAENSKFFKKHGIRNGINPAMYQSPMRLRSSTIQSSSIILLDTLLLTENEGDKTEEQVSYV

[6] = biological target: 5-hydroxytryptamine receptor 6 (Homo sapiens, UniProt P50406); assay type: cell membranes, HeLa, Membrane; details: hela; note: in other assays of this panel Not Active means under 50% inhibition at 10 µM
5-hydroxytryptamine receptor 6, sequence (P50406 whole entry): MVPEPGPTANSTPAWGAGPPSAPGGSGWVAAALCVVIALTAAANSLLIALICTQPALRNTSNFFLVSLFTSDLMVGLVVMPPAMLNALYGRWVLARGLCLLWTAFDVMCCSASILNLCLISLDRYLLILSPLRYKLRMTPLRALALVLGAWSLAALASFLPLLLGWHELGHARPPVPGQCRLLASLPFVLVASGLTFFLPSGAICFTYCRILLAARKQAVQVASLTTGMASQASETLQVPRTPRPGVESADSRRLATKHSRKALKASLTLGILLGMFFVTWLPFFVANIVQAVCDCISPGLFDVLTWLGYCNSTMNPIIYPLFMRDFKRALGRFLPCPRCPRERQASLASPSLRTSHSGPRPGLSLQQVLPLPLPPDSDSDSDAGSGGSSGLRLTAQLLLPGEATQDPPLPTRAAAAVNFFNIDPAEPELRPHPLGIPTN

[7] = DRUGMATRIX: Phosphodiesterase PDE4 enzyme inhibition (substrate: [3H]cAMP + cAMP); details: u-937; Not Active = under 50% inhibition at 10 µM
Endothelin-1 receptor = biological target: T2, Endothelin-1 receptor (Homo sapiens, UniProt P25101); assay type: cell membranes, Membrane; details: cho-k1; note: in other assays of this panel Not Active means under 50% inhibition at 10 µM
T2 sequence (P25101 whole entry): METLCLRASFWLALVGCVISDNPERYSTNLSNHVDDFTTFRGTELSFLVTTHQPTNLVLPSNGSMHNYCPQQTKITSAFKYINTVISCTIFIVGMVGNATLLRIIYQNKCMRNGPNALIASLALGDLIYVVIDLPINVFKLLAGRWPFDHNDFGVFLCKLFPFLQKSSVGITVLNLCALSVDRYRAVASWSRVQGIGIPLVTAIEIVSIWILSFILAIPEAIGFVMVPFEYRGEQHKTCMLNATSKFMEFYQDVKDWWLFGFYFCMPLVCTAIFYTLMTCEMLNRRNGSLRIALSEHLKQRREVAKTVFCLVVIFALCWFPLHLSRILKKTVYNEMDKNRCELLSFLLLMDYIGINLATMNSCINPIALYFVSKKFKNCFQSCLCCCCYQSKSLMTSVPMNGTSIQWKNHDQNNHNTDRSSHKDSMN

[8] = biological target: T3, Muscarinic acetylcholine receptor M4 (Homo sapiens, UniProt P08173); assay type: cell membranes, CHO-K1, Membrane; details: cho-k1; note: in other assays of this panel Not Active means under 50% inhibition at 10 µM
T3 sequence (P08173 whole entry): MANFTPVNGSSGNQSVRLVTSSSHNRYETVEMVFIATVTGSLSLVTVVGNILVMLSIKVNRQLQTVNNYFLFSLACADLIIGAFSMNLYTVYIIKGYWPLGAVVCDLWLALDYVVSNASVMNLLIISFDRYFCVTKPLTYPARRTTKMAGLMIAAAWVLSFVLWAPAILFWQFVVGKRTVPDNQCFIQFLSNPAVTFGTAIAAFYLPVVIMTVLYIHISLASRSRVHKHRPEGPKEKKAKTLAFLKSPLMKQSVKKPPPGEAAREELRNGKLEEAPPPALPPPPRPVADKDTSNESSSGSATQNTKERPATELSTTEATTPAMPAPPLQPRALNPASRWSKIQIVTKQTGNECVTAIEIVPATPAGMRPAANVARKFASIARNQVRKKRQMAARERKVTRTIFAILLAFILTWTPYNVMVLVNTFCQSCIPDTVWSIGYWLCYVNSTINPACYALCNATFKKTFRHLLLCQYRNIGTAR

[9] = DRUGMATRIX: Serotonin (5-Hydroxytryptamine) 5-HT3 radioligand binding (ligand: [3H] GR-65630); assay type: cell membranes, Membrane; details: hek293; Not Active = under 50% inhibition at 10 µM
[10] = biological target: Tyrosine-protein kinase Fyn (Homo sapiens, UniProt P06241); test: biochemical; assay type: cell-based, Insect cells; details: insect cells
Tyrosine-protein kinase Fyn, sequence (P06241 whole entry): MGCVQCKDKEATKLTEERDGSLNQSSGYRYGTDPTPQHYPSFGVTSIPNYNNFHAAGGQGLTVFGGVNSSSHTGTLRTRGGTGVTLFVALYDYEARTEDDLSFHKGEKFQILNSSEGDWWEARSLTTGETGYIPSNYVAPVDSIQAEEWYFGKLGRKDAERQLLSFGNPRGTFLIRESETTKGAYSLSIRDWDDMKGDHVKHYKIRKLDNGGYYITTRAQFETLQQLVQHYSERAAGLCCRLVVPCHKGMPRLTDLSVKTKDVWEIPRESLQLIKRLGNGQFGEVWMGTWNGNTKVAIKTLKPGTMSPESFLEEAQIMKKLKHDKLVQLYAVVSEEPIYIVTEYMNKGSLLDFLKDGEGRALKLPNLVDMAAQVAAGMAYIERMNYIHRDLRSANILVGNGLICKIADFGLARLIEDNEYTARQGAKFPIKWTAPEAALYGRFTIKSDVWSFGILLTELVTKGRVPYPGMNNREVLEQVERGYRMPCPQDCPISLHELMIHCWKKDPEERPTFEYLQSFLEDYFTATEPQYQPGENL

[11] = DRUGMATRIX: Glutamate, AMPA radioligand binding (ligand: [3H] AMPA); assay type: cell membranes, Rattus norvegicus, Wistar, Cerebral cortex, Membrane; details: Not Active = under 50% inhibition at 10 µM
Cytochrome P450 2A6 = biological target: T4, Cytochrome P450 2A6 (Homo sapiens, UniProt P11509); details: bti-tn-5b1-4; note: in other assays of this panel Not Active means under 50% inhibition at 10 µM
T4 sequence (P11509 whole entry): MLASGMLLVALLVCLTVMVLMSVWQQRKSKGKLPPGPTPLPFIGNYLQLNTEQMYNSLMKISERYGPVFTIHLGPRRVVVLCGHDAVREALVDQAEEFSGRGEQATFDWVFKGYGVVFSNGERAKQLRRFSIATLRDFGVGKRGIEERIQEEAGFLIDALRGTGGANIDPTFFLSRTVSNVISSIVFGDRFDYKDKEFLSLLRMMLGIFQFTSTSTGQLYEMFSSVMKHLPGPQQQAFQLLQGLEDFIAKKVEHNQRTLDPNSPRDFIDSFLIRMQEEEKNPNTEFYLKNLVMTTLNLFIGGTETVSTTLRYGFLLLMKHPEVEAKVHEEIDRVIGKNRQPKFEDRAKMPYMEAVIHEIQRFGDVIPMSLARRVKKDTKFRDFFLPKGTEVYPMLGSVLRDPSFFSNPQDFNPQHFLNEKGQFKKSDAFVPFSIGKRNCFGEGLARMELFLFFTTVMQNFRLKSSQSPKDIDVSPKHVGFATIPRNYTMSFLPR

Nitric oxide synthase 1, sequence (P29476 whole entry): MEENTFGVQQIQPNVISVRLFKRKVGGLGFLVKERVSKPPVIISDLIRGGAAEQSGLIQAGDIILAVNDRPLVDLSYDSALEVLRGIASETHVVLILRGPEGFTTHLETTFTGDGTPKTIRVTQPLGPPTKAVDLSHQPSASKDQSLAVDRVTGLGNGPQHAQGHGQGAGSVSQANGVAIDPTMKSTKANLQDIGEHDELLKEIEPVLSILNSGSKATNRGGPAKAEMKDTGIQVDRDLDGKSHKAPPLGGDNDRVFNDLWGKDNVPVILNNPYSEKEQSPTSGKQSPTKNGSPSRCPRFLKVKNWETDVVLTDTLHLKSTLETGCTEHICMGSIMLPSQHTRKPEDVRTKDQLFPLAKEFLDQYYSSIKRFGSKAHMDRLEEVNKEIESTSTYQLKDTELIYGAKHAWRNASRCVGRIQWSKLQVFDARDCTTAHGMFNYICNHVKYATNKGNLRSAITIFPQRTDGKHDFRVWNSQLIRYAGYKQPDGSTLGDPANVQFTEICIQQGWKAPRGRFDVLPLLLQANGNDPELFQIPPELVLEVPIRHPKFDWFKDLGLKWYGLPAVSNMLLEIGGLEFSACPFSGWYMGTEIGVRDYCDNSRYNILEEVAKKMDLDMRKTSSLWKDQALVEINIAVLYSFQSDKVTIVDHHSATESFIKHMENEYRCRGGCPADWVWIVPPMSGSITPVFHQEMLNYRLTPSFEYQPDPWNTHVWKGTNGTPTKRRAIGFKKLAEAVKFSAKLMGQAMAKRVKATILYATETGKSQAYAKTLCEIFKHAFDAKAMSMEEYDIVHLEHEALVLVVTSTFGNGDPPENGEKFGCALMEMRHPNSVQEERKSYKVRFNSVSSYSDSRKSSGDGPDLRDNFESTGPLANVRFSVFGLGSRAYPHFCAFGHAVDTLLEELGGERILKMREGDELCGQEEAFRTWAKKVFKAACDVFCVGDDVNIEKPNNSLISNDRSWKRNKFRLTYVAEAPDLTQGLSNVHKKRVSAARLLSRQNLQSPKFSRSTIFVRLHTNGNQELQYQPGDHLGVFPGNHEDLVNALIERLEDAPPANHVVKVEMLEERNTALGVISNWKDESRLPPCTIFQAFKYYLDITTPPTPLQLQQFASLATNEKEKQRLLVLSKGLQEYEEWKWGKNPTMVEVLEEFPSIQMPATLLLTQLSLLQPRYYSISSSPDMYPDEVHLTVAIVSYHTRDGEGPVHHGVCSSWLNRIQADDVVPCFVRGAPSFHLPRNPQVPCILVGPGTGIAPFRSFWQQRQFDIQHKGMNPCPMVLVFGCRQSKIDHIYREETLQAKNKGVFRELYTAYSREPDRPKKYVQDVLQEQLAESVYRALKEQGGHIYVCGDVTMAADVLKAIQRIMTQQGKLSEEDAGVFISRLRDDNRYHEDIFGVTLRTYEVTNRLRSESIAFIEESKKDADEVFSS

Compound | IC50 (Nitric oxide synthase 1) | IC50 [1] | IC50 [2] | IC50 [3] | Ki [3] | IC50 [4] | Ki [4] | IC50 ([5]; cho-k1) | IC50 [6] | IC50 [7] | Ki [7] | IC50 (Endothelin-1 receptor) | IC50 [8] | IC50 [9] | Ki [9] | IC50 [10] | IC50 [11] | Ki [11] | IC50 (Cytochrome P450 2A6) | Ki (Cytochrome P450 2A6) | also measured
CN1CCC[C@H]1c1cccnc1 [NICOTINE] | Not Active | Not Active | Not Active | Not Active | Not Active | Not Active | Not Active | Not Active | Not Active | Not Active | Not Active | Not Active | Not Active | Not Active | Not Active | Not Active | Not Active | Not Active | Not Active | Not Active | –
CC1(C)S[C@@H]2[C@H](NC(=O)[C@H](NC(=O)N3CCNC3=O)c3ccccc3)C(=O)N2[C@H]1C(=O)O [AZLOCILLIN] | Not Active | Not Active | Not Active | Not Active | Not Active | Not Active | Not Active | Not Active | Not Active | Not Active | Not Active | Not Active | Not Active | Not Active | Not Active | Not Active | Not Active | Not Active | Not Active | Not Active | –
OXALIPLATIN | Not Active | Not Active | Not Active | Not Active | Not Active | Not Active | Not Active | Not Active | Not Active | Not Active | Not Active | Not Active | Not Active | Not Active | Not Active | Not Active | Not Active | Not Active | Not Active | Not Active | Ki (Nitric oxide synthase 1): Not Active; Ki [1]: Not Active; Ki [2]: Not Active; Ki ([5]; cho-k1): Not Active; Ki [6]: Not Active; Ki (Endothelin-1 receptor): Not Active; Ki [8]: Not Active; Ki [10]: Not Active
CN(C)CCCC1(c2ccc(F)cc2)OCc2cc(C#N)ccc21 (centres undefined) [CITALOPRAM] | Not Active | Not Active | Not Active | Not Active | Not Active | Not Active | Not Active | – | Not Active | Not Active | Not Active | Not Active | Not Active | Not Active | Not Active | Not Active | Not Active | Not Active | Not Active | Not Active | IC50 ([5]; read-out: IC50): 1.84 µM; Ki ([5]; read-out: Ki): 1.17 µM
CCc1cccc2c3c([nH]c12)C(CC)(CC(=O)O)OCC3 (centres undefined) [ETODOLAC] | Not Active | Not Active | Not Active | Not Active | Not Active | Not Active | Not Active | Not Active | Not Active | Not Active | Not Active | Not Active | Not Active | Not Active | Not Active | Not Active | Not Active | Not Active | Not Active | Not Active | –
C/C=C1\[C@H]2C=C(C)C[C@]1(N)c1ccc(=O)[nH]c1C2 [HUPERZINE A] | Not Active | Not Active | Not Active | Not Active | Not Active | Not Active | Not Active | Not Active | Not Active | Not Active | Not Active | Not Active | Not Active | Not Active | Not Active | Not Active | Not Active | Not Active | Not Active | Not Active | –
O=c1[nH]cc(F)c(=O)[nH]1 [FLUOROURACIL] | Not Active | Not Active | Not Active | Not Active | Not Active | Not Active | Not Active | Not Active | Not Active | Not Active | Not Active | Not Active | Not Active | Not Active | Not Active | Not Active | Not Active | Not Active | Not Active | Not Active | –
